Experimental findings from PMC5068966, “Lysosomal membrane glycoproteins bind cholesterol and contribute to lysosomal cholesterol export” (eLife, 2016) are described below.

The target of test [1] is T1, LAMP2 (Homo sapiens, UniProt P13473). The test is described as follows: single-concentration ([…]) competition with 3H-cholesterol on purified protein. Format: binding. Details: soluble lumenal domain, human LAMP2 (1–375).
Test [2] deals with T1, LAMP2. The test is described as follows: competition with […] 3H-cholesterol on purified protein. Format: binding. Details: soluble lumenal domain, human LAMP2 (1–375).
Another test addresses AF647 labeled-NPC2 (UniProt P61916). The test is described as follows: MST; 6 nM AF647 labelled NPC2, 16 two-fold dilutions of soluble LAMP2 or RNase B; 50 mM MES pH 5.5, 150 mM NaCl, 0.004% NP-40; in 1 µM cholesterol sulfate.
The target in test [3] is AF647 labeled His6-NPC1 N-terminal domain (UniProt O15118). In words: MST; 6 nM AF647 labelled protein, 16 two-fold dilutions of soluble LAMP2; 50 mM MES pH 5.5, 150 mM NaCl, 0.004% NP-40; in 1 µM cholesterol; fluorescence read for NPC1 N-terminal domain, thermophoresis for RNase B.
Sequence of AF647 labeled His6-NPC1 N-terminal domain (O15118 whole entry, the tested form may be a part): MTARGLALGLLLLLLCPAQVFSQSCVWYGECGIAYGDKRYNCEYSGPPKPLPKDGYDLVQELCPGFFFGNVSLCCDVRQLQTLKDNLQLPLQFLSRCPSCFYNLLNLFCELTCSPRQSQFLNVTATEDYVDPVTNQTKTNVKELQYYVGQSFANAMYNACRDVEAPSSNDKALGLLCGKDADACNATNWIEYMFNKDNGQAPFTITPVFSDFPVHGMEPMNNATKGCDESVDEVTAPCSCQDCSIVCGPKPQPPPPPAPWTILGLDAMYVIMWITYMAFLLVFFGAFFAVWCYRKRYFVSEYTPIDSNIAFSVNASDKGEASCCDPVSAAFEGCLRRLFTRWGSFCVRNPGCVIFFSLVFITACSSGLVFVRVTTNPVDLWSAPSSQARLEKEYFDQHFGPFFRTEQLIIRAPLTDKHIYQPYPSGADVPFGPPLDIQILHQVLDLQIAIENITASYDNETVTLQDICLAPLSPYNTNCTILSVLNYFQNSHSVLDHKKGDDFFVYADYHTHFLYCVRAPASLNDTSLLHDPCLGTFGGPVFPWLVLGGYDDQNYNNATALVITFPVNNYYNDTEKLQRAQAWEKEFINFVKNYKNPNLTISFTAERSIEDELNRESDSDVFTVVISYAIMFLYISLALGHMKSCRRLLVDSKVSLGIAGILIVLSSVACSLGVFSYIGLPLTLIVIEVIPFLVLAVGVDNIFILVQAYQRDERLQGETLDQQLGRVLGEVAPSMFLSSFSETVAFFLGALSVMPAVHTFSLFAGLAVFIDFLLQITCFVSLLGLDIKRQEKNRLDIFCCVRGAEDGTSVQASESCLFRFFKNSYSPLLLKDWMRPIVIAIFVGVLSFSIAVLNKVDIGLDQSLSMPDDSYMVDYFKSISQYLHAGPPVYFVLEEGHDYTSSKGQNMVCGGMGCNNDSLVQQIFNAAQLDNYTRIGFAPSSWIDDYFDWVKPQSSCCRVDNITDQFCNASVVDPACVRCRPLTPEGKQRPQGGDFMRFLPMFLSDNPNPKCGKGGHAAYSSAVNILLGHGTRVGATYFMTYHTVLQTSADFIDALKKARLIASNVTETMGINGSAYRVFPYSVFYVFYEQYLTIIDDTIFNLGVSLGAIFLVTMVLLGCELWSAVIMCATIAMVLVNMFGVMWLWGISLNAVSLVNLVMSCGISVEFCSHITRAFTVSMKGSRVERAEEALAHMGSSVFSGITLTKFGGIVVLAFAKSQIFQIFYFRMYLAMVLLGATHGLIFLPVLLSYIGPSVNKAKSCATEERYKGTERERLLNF
The next test concerns the target T2, LAMP1 (Homo sapiens, UniProt P11279).
T2 construct: soluble lumenal domain, human LAMP1(1–382)
T2 sequence (P11279 1-382): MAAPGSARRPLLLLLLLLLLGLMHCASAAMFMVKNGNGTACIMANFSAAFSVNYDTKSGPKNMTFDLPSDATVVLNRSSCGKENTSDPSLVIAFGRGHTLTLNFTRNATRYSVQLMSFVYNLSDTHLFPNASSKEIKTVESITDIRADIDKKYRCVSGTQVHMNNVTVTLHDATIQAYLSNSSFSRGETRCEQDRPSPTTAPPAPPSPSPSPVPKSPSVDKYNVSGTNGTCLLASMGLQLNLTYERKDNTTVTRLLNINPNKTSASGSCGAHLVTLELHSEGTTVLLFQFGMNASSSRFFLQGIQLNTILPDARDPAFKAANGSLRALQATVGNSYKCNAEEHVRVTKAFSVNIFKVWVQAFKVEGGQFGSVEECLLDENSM
The test is described as follows: 3H-cholesterol binding to purified His-tagged protein on Ni-NTA.

Test [4] deals with T1, LAMP2. The test is described as follows: 3H-cholesterol binding to purified His-tagged protein on Ni-NTA, with cold competition; bound cholesterol also identified by TLC and LC/MS. Details: soluble lumenal domain, human LAMP2 (1–375); also domain 1 (1–231) and domain 2.
The target of test [5] is T1, LAMP2. In words: direct 3H-25-hydroxycholesterol binding to purified protein; competition with 3H-cholesterol. Details: soluble lumenal domain, human LAMP2 (1–375).

T1 sequence (P13473 29-375): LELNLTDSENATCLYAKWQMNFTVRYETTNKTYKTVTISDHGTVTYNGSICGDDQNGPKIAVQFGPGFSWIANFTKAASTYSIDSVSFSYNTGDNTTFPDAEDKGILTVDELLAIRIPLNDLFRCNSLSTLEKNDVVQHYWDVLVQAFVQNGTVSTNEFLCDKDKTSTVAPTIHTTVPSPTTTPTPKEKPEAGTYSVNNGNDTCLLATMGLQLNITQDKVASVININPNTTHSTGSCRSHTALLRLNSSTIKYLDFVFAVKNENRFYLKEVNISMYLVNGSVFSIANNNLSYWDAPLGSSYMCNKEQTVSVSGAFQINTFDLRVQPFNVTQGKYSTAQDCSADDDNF
Sequence of AF647 labeled-NPC2 (P61916 20-151): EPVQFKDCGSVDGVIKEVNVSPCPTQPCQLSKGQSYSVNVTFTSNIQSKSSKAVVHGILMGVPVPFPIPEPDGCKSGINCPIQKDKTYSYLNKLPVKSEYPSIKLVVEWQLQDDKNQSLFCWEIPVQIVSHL

As to `CC(C)C(O)CC[C@@H](C)[C@H]1CC[C@H]2[C@@H]3CC=C4C[C@@H](O)CC[C@]4(C)[C@H]3CC[C@]12C` (stereo partly shown) [24-HC, 24-hydroxycholesterol], the “single-concentration (30 μM) competition with 3H-cholesterol on purified protein” value at LAMP2 [1] is “^3H-cholesterol binding was competed by unlabeled cholesterol, 24-hydroxycholesterol, but not cholesterol sulfate (Figure 1G)”. As to `CC(C)CCC[C@@H](C)[C@H]1CC[C@H]2[C@@H]3C(=O)C=C4C[C@@H](O)CC[C@]4(C)[C@H]3CC[C@]12C` [7-ketocholesterol], at LAMP2 [2], the “competition with 50 nM 3H-cholesterol on purified protein” value is given as 7-ketocholesterol (Figure 2D), but not cholesterol sulfate (Figure 2A), compete with ^3H-cholesterol for binding to LAMP2 protein. For the molecule “full length, soluble human LAMP2 (1-375) (from UniProt P13473 29-375) (domain or fragment)”, the Kd (usually the concentration at which binding is half-saturated) in the test with AF647 labeled-NPC2 turned out to be 122 nM; in test [3] it was 6 nM. As to `CC(C)CCC[C@@H](C)[C@H]1CC[C@H]2[C@@H]3CC=C4C[C@@H](O)CC[C@]4(C)[C@H]3CC[C@]12C` [cholesterol], the “3H-cholesterol binding to purified His-tagged protein on Ni-NTA” value on LAMP1 is “Soluble, purified, LAMP1 and LAMP2 proteins appeared to bind ^3H-cholesterol saturably”. The “3H-cholesterol binding to purified His-tagged protein on Ni-NTA, with cold compe” value at LAMP2 [4] was “Soluble, purified, LAMP1 and LAMP2 proteins appeared to bind ^3H-cholesterol saturably”. As to `C[C@H](CCCC(C)(C)O)[C@H]1CC[C@H]2[C@@H]3CC=C4C[C@@H](O)CC[C@]4(C)[C@H]3CC[C@]12C` [25-hydroxycholesterol], the “direct 3H-25-hydroxycholesterol binding to purified protein; competition with 3H” value on LAMP2 [5] is reported as “LAMP2 also bound ^3H-25-hydroxycholesterol with similar apparent affinity as cholesterol; binding was competed by excess cold 25-hydroxycholesterol”.
